Experiments:
Beta-lactamase = Beta-lactamase (Staphylococcus aureus, UniProt P00807); assay: The compound was evaluated for inhibition against Beta-lactamase derived from Staphylococcus aureus
Beta-lactamase TEM = Beta-lactamase TEM (Escherichia coli, UniProt P62593); assay: The compound was evaluated for inhibition against Beta-lactamase TEM […]
Beta-lactamase class C = Beta-lactamase class C (Enterobacter cloacae, UniProt Q59401); assay: Inhibition of Class C beta-lactamase from Enterobacter cloacae strain P99
Chain of Beta-lactamase class C (Q59401 whole entry): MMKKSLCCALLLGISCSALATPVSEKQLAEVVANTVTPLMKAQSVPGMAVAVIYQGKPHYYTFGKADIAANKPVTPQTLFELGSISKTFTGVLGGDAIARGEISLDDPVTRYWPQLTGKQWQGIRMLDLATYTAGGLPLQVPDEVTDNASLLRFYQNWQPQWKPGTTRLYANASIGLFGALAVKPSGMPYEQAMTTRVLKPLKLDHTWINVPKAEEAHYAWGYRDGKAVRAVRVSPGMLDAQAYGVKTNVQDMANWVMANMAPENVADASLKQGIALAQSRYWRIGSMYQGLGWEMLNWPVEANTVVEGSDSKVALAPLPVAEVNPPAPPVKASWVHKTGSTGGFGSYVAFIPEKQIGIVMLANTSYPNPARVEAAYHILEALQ

Chain of Beta-lactamase TEM (P62593 whole entry): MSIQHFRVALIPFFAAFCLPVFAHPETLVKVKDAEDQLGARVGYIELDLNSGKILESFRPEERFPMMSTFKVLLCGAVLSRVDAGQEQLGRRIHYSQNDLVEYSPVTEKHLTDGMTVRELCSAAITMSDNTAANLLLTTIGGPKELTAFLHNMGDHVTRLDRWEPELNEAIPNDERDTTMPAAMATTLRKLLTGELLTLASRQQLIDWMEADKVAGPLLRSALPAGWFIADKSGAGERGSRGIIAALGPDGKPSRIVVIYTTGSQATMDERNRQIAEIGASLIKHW
Chain of Beta-lactamase (P00807 whole entry): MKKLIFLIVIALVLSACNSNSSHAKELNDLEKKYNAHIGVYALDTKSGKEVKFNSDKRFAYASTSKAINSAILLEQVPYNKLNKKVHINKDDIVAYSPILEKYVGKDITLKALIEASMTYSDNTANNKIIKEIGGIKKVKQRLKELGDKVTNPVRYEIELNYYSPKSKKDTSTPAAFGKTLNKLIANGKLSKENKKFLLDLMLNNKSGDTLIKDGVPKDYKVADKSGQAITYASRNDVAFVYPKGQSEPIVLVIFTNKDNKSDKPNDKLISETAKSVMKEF

Compound | IC50 (Beta-lactamase) [µM] | IC50 (Beta-lactamase TEM) [µM] | IC50 (Beta-lactamase class C) [µM]
CC(=O)OCC1=C(C(=O)O)N2C(=O)/C(=C/C(=O)OC(C)(C)C)[C@H]2S(=O)(=O)C1 | 977 | 0.03 | 6.56
C=C1C(COC(C)=O)=C(C(=O)O)N2C(=O)/C(=C/C(=O)O)[C@H]2S1(=O)=O | 230 | 498 | 2.49
CC1=C(C(=O)O)N2C(=O)/C(=C/c3ccccn3)[C@H]2S(=O)(=O)[C@@H]1Sc1nnnn1C | 844 | 31.6 | 29
C=C1C(COC(C)=O)=C(C(=O)O)N2C(=O)/C(=C/c3ccccn3)[C@H]2S1(=O)=O | 733 |  | 0.165
C=C1C(C)=C(C(=O)O)N2C(=O)/C(=C/C(=O)O)[C@H]2S1(=O)=O |  | 277 | 36.8
C=C1C(C)=C(C(=O)O)N2C(=O)/C(=C/c3ccccn3)[C@H]2S1(=O)=O | 1860 | 91.1 | 0.039
CC1=C(C(=O)O)N2C(=O)/C(=C/c3ccccn3)[C@H]2S(=O)(=O)C1C (stereo partly drawn) | 102 | 74.1 | 3.9
CSC(SC)=C1C(C)=C(C(=O)O)N2C(=O)/C(=C/c3ccccn3)[C@H]2S1(=O)=O |  | 173 | 0.51
C=C1C(CSc2nnnn2C)=C(C(=O)O)N2C(=O)/C(=C/C(=O)OC(C)(C)C)[C@H]2S1(=O)=O |  | 1.13 | 2.38
CC(=O)OCC1=C(C(=O)O)N2C(=O)/C(=C/c3ccccn3)[C@H]2S(=O)(=O)C1 | 402 | 34.8 | 0.498
C=C1C(C)=C(C(=O)O)N2C(=O)/C(=C/C(=O)OC(C)(C)C)[C@H]2S1(=O)=O |  |  | 48.6
C=C1C(COC(C)=O)=C(C(=O)O)N2C(=O)/C(=C/C(=O)OC(C)(C)C)[C@H]2S1(=O)=O |  |  | 1.55

Reference: ChEMBL document CHEMBL1133345, “The synthesis and evaluation of 2-substituted-7-(alkylidene)cephalosporin sulfones as beta-lactamase inhibitors” (Bioorg Med Chem Lett, 2000)
